Laboratory results taken from PMC12263422, “Cryo-EM structure of the human THIK-1 K2P K^+ channel reveals a lower Y gate regulated by lipids and anesthetics” (Nature Structural & Molecular Biology, 2025).
Where “and” joins values, the source holds several entries; their conditions need not be identical. Identical values can stand only once. Like-named read-outs stand apart in the source and are kept apart here.

Columns and labels:
Format in all cases: cell-based
THIK-1 N261A = biological target: T1, THIK-1 N261A (Homo sapiens, UniProt Q9HB14, N261A); test: Inside-out excised patch recordings, oocytes, THIK-1 N261A mutant (lipid activation); details: read-out: Linoleic acid EC50
T1 construct: expressed in transfected cells; host or cells: Xenopus oocytes (mRNA injection)
T1 sequence (Q9HB14 whole entry N261A): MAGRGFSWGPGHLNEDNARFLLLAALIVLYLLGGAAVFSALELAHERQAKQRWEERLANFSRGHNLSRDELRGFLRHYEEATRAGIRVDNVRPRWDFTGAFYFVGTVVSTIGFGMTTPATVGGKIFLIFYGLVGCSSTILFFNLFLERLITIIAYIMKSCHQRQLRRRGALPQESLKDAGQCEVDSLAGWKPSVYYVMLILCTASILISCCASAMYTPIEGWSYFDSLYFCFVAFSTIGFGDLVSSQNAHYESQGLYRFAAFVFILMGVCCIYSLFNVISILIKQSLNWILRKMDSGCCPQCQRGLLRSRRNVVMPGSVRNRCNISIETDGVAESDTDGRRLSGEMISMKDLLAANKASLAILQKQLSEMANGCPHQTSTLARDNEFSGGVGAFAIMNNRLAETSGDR
Source text: Supplement 41594_2025_1497_MOESM2_ESM.xlsx, sheet "ExtData_Fig_S5f" | column: Linoleic acid EC50 (µM); N261A

THIK-1 I139A = biological target: T2, THIK-1 I139A (Homo sapiens, UniProt Q9HB14, I139A); test: Inside-out excised patch recordings, oocytes, THIK-1 I139A mutant; details: for τ of 1 mM TPenA block / τ of 1 mM TPenA release: I139A; for Normalized currents: THIK-1 I139A
T2 construct: expressed in transfected cells; host or cells: Xenopus oocytes (mRNA injection)
T2 sequence (Q9HB14 1-408 I139A): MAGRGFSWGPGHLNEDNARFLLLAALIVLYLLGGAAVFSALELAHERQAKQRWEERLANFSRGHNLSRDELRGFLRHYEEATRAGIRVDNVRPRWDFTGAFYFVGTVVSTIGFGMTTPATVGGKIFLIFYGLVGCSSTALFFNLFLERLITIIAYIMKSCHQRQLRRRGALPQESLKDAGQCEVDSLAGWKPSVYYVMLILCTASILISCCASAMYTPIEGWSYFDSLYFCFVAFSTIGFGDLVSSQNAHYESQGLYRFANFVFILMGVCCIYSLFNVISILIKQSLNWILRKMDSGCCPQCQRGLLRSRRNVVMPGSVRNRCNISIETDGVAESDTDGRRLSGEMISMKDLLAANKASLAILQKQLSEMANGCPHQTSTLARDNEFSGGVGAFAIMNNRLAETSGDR
Source text: Human K2P13.1 THIK-1 (GenBank accession number: NM_022054) and human K2P12.1 THIK-2 (NM_022055.1) were used in this study. For functional expression studies, the respective K^+ channel subtype coding sequences were subcloned into the oocyte expression vector pSGEM or the dual-purpose expression vector pFAW[41] and verified by sequencing. All mutant channels were obtained by site-directed mutagenesis and verified by sequencing. To increase surface expression and macroscopic currents, measurements of THIK-2 channels used a mutated ER retention motif, (R11A R12A R14A R15A R16A; THIK-2*)[20]. Vector DNA was linearized with NheI or MluI, and mRNA was synthesized in vitro using the SP6 or T7 AmpliCap Max High Yield Message Maker Kit (Cellscript, USA) or HiScribe T7 ARCA mRNA Kit (New England Biolabs).
Two-electrode voltage–clamp (TEVC) studies were performed in Xenopus oocytes. All animal use conformed to the Guide for the Care and Use of Laboratory Animals (NIH Publication 85–23), and all experiments using Xenopus toads were approved by the local ethics panels. Oocytes were stored at 17 °C in ND96 recording solution composed of (in mM): 96 NaCl, 2 KCl, 1.8 CaCl2, 1 MgCl2, 5 HEPES (pH 7.5 adjusted with NaOH and HCl), supplemented with Na-pyruvate (275 mg L^–1), theophylline (90 mg L^–1) and gentamicin (50 mg L^–1). Oocytes were injected with 1 ng mRNA for WT or mutant channels, and were incubated for 24–48 h at 17 °C. Two-electrode voltage clamp recordings were then performed as previously described[42],[43]. For macroscopic patch–clamp measurements, oocytes were obtained as described above incubated at 17 °C in a solution containing (mM): 54 NaCl, 30 KCl, 2.4 NaHCO3, 0.82 MgSO4 ×7 H2O, 0.41 CaCl2, 0.33 Ca(NO3)2 ×4 H2O and 7.5 TRIS (pH 7.4 adjusted with NaOH and HCl) for 1–4 days before use. Excised patch recordings in inside-out configuration conditions were performed at room temperature. Patch pipettes were made from thick-walled borosilicate glass GB 200TF-8P (Science Products), had resistances of 0.2–0.5 MΩ (tip diameter, 10–25 µm) and filled with a pipette solution (in mM): 120 KCl, 10 HEPES and 3.6 CaCl2 (pH 7.4 adjusted with KOH and HCl). Intracellular bath solutions and compounds were applied to the cytoplasmic side of excised patches for the various K^+ channels through a gravity flow multi-barrel pipette system. The intracellular solution had the following composition (in mM): 120 KCl, 10 HEPES, 2 EGTA and 1 pyrophosphate (pH adjusted with KOH and HCl). Currents were recorded with an EPC10 amplifier (HEKA Electronics) and sampled at 10 kHz or higher, with filtering set to 3 kHz (–3 dB) or higher, as appropriate for sampling rate. For measurements of GPCR activation, whole-cell currents were recorded for THIK-1 in transiently transfected HEK-293 cells. Cells were stimulated by a ramp protocol between −100 and +60 mV (holding potential, −80 mV). The pipette solution was composed of (in mM): 140 KCl, 2 MgCl2, 1 CaCl2, 2.5 EGTA and 10 HEPES (pH 7.3 adjusted with KOH and HCl). The extracellular bath solution had the following composition (in mM): 135 NaCl, 5 KCl, 2 MgCl2, 2 CaCl2, 10 glucose and 10 HEPES pH (pH 7.3 adjusted with NaOH and HCl). Oxotremorine M (Oxo-M) was added to extracellular bath solution to obtain the final concentration. Single-channel currents were recorded with an Axopatch 200B amplifier through a Digidata 1440A digitizer (Molecular Devices). Data were filtered at 2 kHz and recorded at a 200-kHz sampling rate with the program Clampex (Molecular Devices). Pipette solution and bath solution for cell-attached recordings contained (in mM): 140 KCl, 2 MgCl2, 1 CaCl2 and 10 HEPES (pH 7.4 adjusted with KOH and HCl). For inside-out recordings, the bath solution contained (in mM): 140 KCl, 2 MgCl2, 1 CaCl2 and 10 HEPES (pH 7.2 adjusted with KOH and HCl). All experiments were conducted at room temperature. […]

THIK-1 F142A = biological target: T3, THIK-1 F142A (Homo sapiens, UniProt Q9HB14, F142A); test: Inside-out excised patch recordings, oocytes, THIK-1 F142A mutant; details: read-out: TPenA IC50
T3 construct: expressed in transfected cells; host or cells: Xenopus oocytes (mRNA injection)
T3 sequence (Q9HB14 whole entry F142A): as the sequence (Q9HB14 whole entry N261A) above, with F142A, A261N counted along it
Source text: Supplement 41594_2025_1497_MOESM2_ESM.xlsx, sheet "ExtData_Fig_S2c" | column: Normalized currents

| SMILES | EC50 (THIK-1 N261A; individual recordings) | EC50 (THIK-1 N261A; mean) | τ of 1 mM TPenA block (THIK-1 I139A; individual recordings) | τ of 1 mM TPenA release (THIK-1 I139A; individual recordings) | τ of 1 mM TPenA block (THIK-1 I139A; mean) | τ of 1 mM TPenA release (THIK-1 I139A; mean) | Normalized currents (THIK-1 I139A; TPenA 0.1 µM) | Normalized currents (THIK-1 I139A; TPenA 1 µM) | Normalized currents (THIK-1 I139A; TPenA 4 µM) | Normalized currents (THIK-1 I139A; TPenA 15.6 µM) | Normalized currents (THIK-1 I139A; TPenA 62.5 µM) | Normalized currents (THIK-1 I139A; TPenA 250 µM) | Normalized currents (THIK-1 I139A; TPenA 1000 µM) | Normalized currents (THIK-1 I139A; TPenA 4000 µM) | IC50 (THIK-1 F142A; individual recordings) | IC50 (THIK-1 F142A; mean) |
| --- | --- | --- | --- | --- | --- | --- | --- | --- | --- | --- | --- | --- | --- | --- | --- | --- |
| CCCCC/C=C\C/C=C\CCCCCCCC(=O)O [linoleic acid] | 92.8 µM and 196 µM and 39.8 µM and 91.8 µM and 102 µM and 140 µM | 110 µM | – | – | – | – | – | – | – | – | – | – | – | – | – | – |
| CCCCC[N+](CCCCC)(CCCCC)CCCCC [TPenA, tetrapentylammonium] | – | – | 0.150 s and 0.087 s and 0.338 s and 0.121 s and 0.235 s and 0.061 s and 0.088 s and 0.065 s and 0.063 s and 0.057 s and 0.086 s and 0.068 s and 0.117 s and 0.145 s and 0.215 s and 0.129 s and 0.101 s and 0.147 s and 0.113 s and 0.270 s and 0.151 s and 0.198 s and 0.133 s | 1.320 s and 0.719 s and 0.852 s and 0.882 s and 0.634 s and 0.828 s and 0.460 s and 0.897 s and 0.583 s and 1.759 s and 0.311 s and 0.642 s and 0.558 s and 0.489 s and 0.435 s and 0.476 s and 0.409 s and 0.565 s and 0.635 s and 0.683 s and 0.647 s and 0.518 s and 0.501 s | 0.13 s | 0.68 s | 1.00 | 0.93 | 0.83 | 0.67 | 0.44 | 0.22 | 0.11 | 0.08 | 239 µM and 187 µM and 498 µM and 367 µM | 323 µM |
